Test results as given in publication PMC10665444, “Unveiling the potential role of natriuretic peptide receptor a isoforms in fine-tuning the cGMP production and tissue-specific function” (Scientific Reports, 2023).

Key:
[1] = tested on: NPR-A isoform 1; experiment: Whole-cell cGMP assay (competitive ELISA), DLD-1 cells transfected with NPR-A isoform 1 alone; assay type: cell-based, rat; details: IBMX 0.5 mM 30 min, then peptide 30 min
Description: (§1) A plasmid containing rat NPR-A in a pCMV-4 backbone, gifted by Dr. Ruey-Bing Yang (Academia Sinica), was used as the NPR-A template. All three receptor isoforms plasmids were created by modifying the NPR-A sequence in the template plasmid using Site-Directed Mutagenesis (SDM) following the protocol from the Q5® Site-Directed Mutagenesis kit. All plasmids were cloned and expanded in NEB 5 α competent cells. DNA sequencing was done to confirm the success of the SDM. Primers used to clone isoform 1 are 5’—tga ccc tga gtg ggg gca acc ttg tgg c—3’ and 5’—gcc aca agg ttg ccc cca ctc agg gtc a—3’. primers used to clone isoform 2 are 5’ –gac ggg tgc ctt cag gcc ctg cca ggt tgt cct gaa cta ta—3’ and 5’ –tat agt tca gga caa cct ggc agg gcc tga agg cac ccg tc—3’. Primers used to clone isoform 3 are 5’—gtg gag gat ggc ctg gca gtg aca gag act—3’ and 5’—agt ctc tgt cac tgc cag gcc atc ctc cac—3’.
(§2) DLD-1 cells were cultured in complete RPMI-1640 medium supplemented with 10% HI-FBS and 1% Penicillin–Streptomycin (P/S). Cells were sub-cultured every 3 days using trypsinization. […]
(§3) Cells were transfected following the transfection protocol above and incubated for another 16 h overnight. […] Total protein content of three wells were determined using Bicinchoninic acid assay and used for normalizing across the different 24-well plates. Expression of the receptors in 3 wells were determined using Western blotting.

[2] = tested on: NPR-A isoform 2; experiment: Whole-cell cGMP assay (competitive ELISA), DLD-1 cells transfected with NPR-A isoform 2 alone; assay type: cell-based, rat; details: IBMX 0.5 mM 30 min, then peptide 30 min
Description: as §1, §2, §3

[3] = tested on: NPR-A isoform 3; experiment: Whole-cell cGMP assay (competitive ELISA), DLD-1 cells transfected with NPR-A isoform 3 alone; assay type: cell-based, rat; details: IBMX 0.5 mM 30 min, then peptide 30 min
Description: as §1, §2, §3

[4] = tested on: WT NPR-A co-transfected with isoform 1; experiment: Whole-cell cGMP assay, DLD-1 cells co-transfected with WT NPR-A and isoform 1; assay type: cell-based, rat; details: peptide 30 min, ELISA, triplicates
Description: as §1, §2, §3

[5] = tested on: WT NPR-A co-transfected with isoform 2; experiment: Whole-cell cGMP assay, DLD-1 cells co-transfected with WT NPR-A and isoform 2; assay type: cell-based, rat; details: peptide 30 min, ELISA, triplicates
Description: as §1
(§4) DLD-1 cells were cultured in complete RPMI-1640 medium supplemented with 10% HI-FBS and 1% Penicillin–Streptomycin (P/S). Cells were sub-cultured every 3 days using trypsinization. DLD-1 cells (0.2 million) were seeded per well in 24-well plates to attain near 70% confluent before transfection was performed following the manufacturer’s protocol. Plasmids of interest was incubated with lipofectamine 3000 in a 1:1 ratio before the mixture was added to the cells. For single transfection, 0.8 μ g of the plasmid of interest was used. For co-transfection, the NPR-A WT plasmid was fixed at 0.8 μ g and the receptor isoforms were mixed with the WT plasmid according to their given percentages. For 1% co-transfection, 0.8 μ g of NPR-A WT plasmid was mixed with 0.00808 μ g of receptor isoforms. […]
as §3

[6] = tested on: WT NPR-A co-transfected with isoform 3; experiment: Whole-cell cGMP assay, DLD-1 cells co-transfected with WT NPR-A and isoform 3; assay type: cell-based, rat; details: peptide 30 min, ELISA, triplicates
Description: as §1, §4, §3

[7] = tested on: WT NPR-A co-transfected with receptor isoforms; experiment: Whole-cell cGMP assay, DLD-1 cells co-transfected with WT NPR-A and isoforms (statements over more than one isoform); assay type: cell-based, rat; details: 1% co-transfection of isoform 1 and 2
Description: as §1, §2, §3

[8] = tested on: NPR-A; details: compared with the vasodilatory analogue (DRD-ANP); cited from earlier work
Description: We evaluated the roles of three distinct amino acid residues found within the K-ring and the C-terminal and identified the residues that are responsible for these functions. […] The separation of diuretic and hemodynamic bioactivity in DRD-ANP and D ...

[9] = tested on: NPR-A; details: ANP compared with BNP; cited from earlier work
Description: They interact with three NP receptors (NPRs), namely NPR-A, NPR-B and NPR-C. Lack of NPs or their receptors have been associated with hypertension and heart failure.

SMILES: CC[C@H](C)[C@@H]1NC(=O)[C@H](CCCNC(=N)N)NC(=O)[C@H](CC(=O)O)NC(=O)[C@H](CCSC)NC(=O)[C@H](CCCNC(=N)N)NC(=O)CNC(=O)CNC(=O)[C@H](Cc2ccccc2)NC(=O)[C@@H](NC(=O)[C@H](CO)NC(=O)[C@H](CO)NC(=O)[C@H](CCCNC(=N)N)NC(=O)[C@H](CCCNC(=N)N)NC(=O)[C@H](CC(C)C)NC(=O)[C@@H](N)CO)CSSC[C@@H](C(=O)N[C@@H](CC(N)=O)C(=O)N[C@@H](CO)C(=O)N[C@@H](Cc2ccccc2)C(=O)N[C@@H](CCCNC(=N)N)C(=O)N[C@@H](Cc2ccc(O)cc2)C(=O)O)NC(=O)CNC(=O)[C@H](CC(C)C)NC(=O)CNC(=O)[C@H](CO)NC(=O)[C@H](CCC(N)=O)NC(=O)[C@H](C)NC(=O)CNC1=O [ANP, Atrial natriuretic peptide]
- cGMP production (result in words) [1]: no cGMP production was observed
- cGMP production (result in words) [2]: no cGMP production was observed
- cGMP production (result in words) [3]: no cGMP production was observed
- decrease in cGMP production of WT NPR-A ([4]; 1% co-transfection with isoform 1): approximately 10.6%
- decrease in cGMP production of WT NPR-A ([4]; 50% co-transfection with isoform 1): 87.4%
- decrease in cGMP production of WT NPR-A ([5]; 1% co-transfection with isoform 2): 8.0%
- decrease in cGMP production of WT NPR-A ([5]; 10% co-transfection with isoform 2): 69.8%
- decrease in cGMP production of WT NPR-A ([5]; 50% co-transfection with isoform 2): 84.1%
- decrease in cGMP production of WT NPR-A ([6]; 1% co-transfection with isoform 3): 22.6%
- decrease in cGMP production of WT NPR-A ([6]; 10% co-transfection with isoform 3): 54.3%
- decrease in cGMP production of WT NPR-A ([6]; 50% co-transfection with isoform 3): 86.2%
- reduction in cGMP production (range over isoforms 1 and 2) [7]: 8–10.6%
- rate of cGMP production (in words) [8]: produce cGMP much faster than the vasodilatory analogue (DRD-ANP)
- binding affinity for NPR-A (in words) [9]: stronger binding affinity than BNP
